Measurements taken from paper PMC4010497, “Synthesis and Evaluation of Fluorine-Substituted Phenyl Acetate Derivatives as Ultra-Short Recovery Sedative/Hypnotic Agents” (PLoS ONE, 2014).
Where two headings read alike, the source gives them in different places.

Tests used:
[1] = target: T1, human GABAA receptor α1, β2 and γ2 (CHO-K1 cells) (Homo sapiens, UniProt P14867+P18507+P47870); test: cell-based
T1 construct: expressed in transfected cells; host or cells: CHO-K1 cells, stably transfected
Protocol: Chinese hamster ovary (CHO)-K1 cells transfected stably with human GABAA receptor α1, β2 and γ2 subunit cDNAs were used. The cells were plated onto collagen-coated 35-mm cell culture dishes at low density for 1–7 days before recording. Test solutions were prepared in the extracellular solution on the day the patch-clamp assay was performed. The intracellular solution consisted of 22 mM KCl, 110 mM K-aspartate, 8 mM NaCl, 1 mM MgCl2, 1 mM CaCl2, 10 mM ethylene glycol tetraacetic acid, 5 mM Na2ATP, 10 mM hydroxyethyl piperazineethanesulfonic acid (HEPES) (adjusted to pH 7.2 using KOH), while the extracellular solution contained 145 mM NaCl, 4 mM KCl, 2 mM CaCl2, 2 mM MgCl2, 10 mM HEPES (adjusted to pH 7.4 using NaOH). The assay was performed at room temperature. Cells were maintained at −70 mV and the potentiation effect was assessed by co-application of the test compound with EC20 of muscimol after the cell was pre-incubated with the test compound for 45 s. GABA EC20 measured individually in each cell. The amplitude of the Cl− current in response to muscimol and/or test compound was determined. The response to the co-application of the test compound and muscimol was normalized to the control muscimol response as a percentage of the control. A potentiation effect was indicated by a value >100% of the control response. EC50 values were calculated using the four parameter logistic equation, where E was the amplitude of the muscimol-induced current in the presence of the anesthetic at concentration [A], EMAX was the amplitude of the response in the presence of a maximally effective concentration of the anesthetic, EC50 was the concentration of anesthetic producing a half-maximal enhancement of the muscimol-induced response and nH was the Hill coefficient. [drawing 1]

in vivo = settings: mouse, in vivo; mice, 95% confidence limits
Protocol: (§1) The LD50 was determined in mice, rats, and rabbits and the TI was calculated as LD50/HD50.

rabbits [2] = test: Hypnosis in response to IV infusion in rabbits; type: in vivo, rabbit; settings: for time to walk after infusion: 20-min IV infusion; for duration of LORR after cessation of infusion: 20-min IV infusion at half the HD50 per min after 2× HD50 induction
Protocol: Induction of hypnosis in rabbits was achieved using 2× HD50 dose of test compound, and immediately after induction, infusion via the tail vein was commenced at half the HD50 dosage per min. the infusion rate was maintained for 20 min or 1 h or 3 h later. The depth of hypnosis was monitored by the magnitude of a withdrawal reflex to intermittent paw pinch provided by a pair of forceps.

rabbits [3] = test: Hypnotic potency and recovery after IV bolus in rabbits; type: in vivo, rabbit; settings: for Duration of LORR / Time to walk: 2× HD50 dose, mean ± SD; for HD50: IV, 95% confidence limits
Protocol: (§2) All tests were performed during the light period. Groups of mice, rats and rabbits were injected intravenously (lateral tail vein) over 10 s with each dose of test compound, placed in separate boxes to reduce external stimuli and assessed for the loss of righting reflex. Dosing was performed using mg/kg scheme. A set of dose levels was chosen, and depending on whether the loss of righting reflex was observed, extra doses were introduced to provide data for the loss of righting reflex over a narrow dose range to allow potency calculations.
Immediately following the injection, the mice, rats and rabbits were tested for loss of righting reflex. […] Once a loss was observed, the interval between the loss of righting reflex and the return to righting reflex was recorded. […] To compare the duration of LORR of each compound at equipotent doses, groups of mice, rats and rabbits were injected with each compound at 2× HD50 over 10 s.
(§3) Time to walk was the time required after righting before mice and rabbits walked from the center to the periphery of a 30-cm diameter dise.

rat [4] = test: Therapeutic index (LD50/HD50) in rat; type: in vivo
Protocol: as §1

rat [5] = type: in vivo; settings: for HD50: IV, 95% confidence limits
Protocol: as §2, with “calculations. From the percentage of mice, rats and rabbits in each group showing loss of righting reflex for ≥30 s, a probit analysis (SAS Institute) was performed to obtain an HD50 for each compound with 95% confidence limits.” for “calculations.”
(§4) Immediately following the injection, the mice, rats and rabbits were tested for loss of righting reflex. […] Once a loss was observed, the interval between the loss of righting reflex and the return to righting reflex was recorded. The anesthetized animals recovered righting reflexes spontaneously. To compare the duration of LORR of each compound at equipotent doses, groups of mice, rats and rabbits were injected with each compound at 2× HD50 over 10 s.
as §3
(§5) The rotarod test was conducted to evaluate the recovery to the motor coordination. Before the LORR test, mice were trained for 2 consecutive days. Trained mice could maintain their balance on rod for more than 2 mins. After the mice could walk from the center to the periphery of a 30-cm diameter dise, they were put on the rotarod. Mice were classified as behavioral recovery when, on being placed on the rod, they could maintain their balance for 20 s. The time to behavioral recovery was the time required after mice walked from the centre to the periphery of a 30-cm diameter disc before they could maintain their balance on rod for 20 s.

mice [6] = test: animal or person; type: in vivo; settings: for ED50: Mus musculus
Protocol: as §2, with “calculations. From the percentage of mice, rats and rabbits in each group showing loss of righting reflex for ≥30 s, a probit analysis (SAS Institute) was performed to obtain an HD50 for each compound with 95% confidence limits.” for “calculations.”
as §4, §3, §5

[7] = Octanol:water partition coefficient; type: physicochemical; settings: water buffered with 10 mm Tris (pH 7.4)
Protocol: One mg of each hypnotic was added to 10 ml of water buffered with 10 mm Tris (pH 7.4) and 1 ml of octanol. The mixture was stirred overnight and then centrifuged to fully separate the organic and aqueous phases. The relative hypnotic concentration in each phase (i.e., the partition coefficient) was determined by high-performance liquid chromatography as described for blood.

mice [8] = test: in vivo; settings: LD50/HD50
Protocol: as §1

GABAA receptor = test: GABAA radioligand binding assay ([3H]EBOB); settings: 50 µM compound, 0.5 nM [3H]EBOB, rat frontoparietal cortex
Protocol: All the new compounds were dissolved in 5% DMSO.
Specific binding was determined in the presence of compounds.
Membrane suspensions were thawed and centrifuged in incubation buffer at 10,000×g for 10 min and washed by a similar centrifugation. For displacement studies, membrane suspensions (5 mg original wet wt./ml) were incubated with 0.5 nM [^3H]EBOB ([…], Perkin Elmer Life Sciences, Boston, MA, USA) in the absence or presence of 50 µM of new compounds or reference drug for 2 h at 25°C. Nonspecific binding was determined in the presence of 10 µM Bicuculline. Bicuculline and picrotoxin were frequently used to determine the nonspecific binding when [3H]EBOB as radioligand [17]. Triplicate 1 ml samples were filtered on Whatman GF/B filters under vacuum with a Brandel Harvester and washed with 3×3 ml ice-cold buffer.

rabbits [9] = test: Therapeutic index (LD50/HD50) in rabbits; type: in vivo, rabbit
Protocol: as §1

[10] = target: T1, human GABAA receptor α1, β2 and γ2 (CHO-K1 cells); parameters: method as in PMID 22531340; settings: GABAA receptor electrophysiology; cited from earlier work
[11] = In vitro metabolic half-life in dog whole blood; type: in vitro ADME, Beagle dog; settings: male; whole blood, Beagle dog (n = 3), 37°C, 200 µM; read-out: Mean t1/2 Value
Protocol: (§6) Human whole blood stability experiments were conducted in whole blood from four human donors (male, 18–25 years). Single experiments were conducted with pooled blood from Sprague-Dawley rats (male, 8 weeks, n = 3), New Zealand White rabbits (male, 8–10 weeks, n = 3), Beagle dogs (male, 2–3 years, n = 3) and Cynomolgus monkeys (male, 3–4 years, n = 3). All the blood samples were provided by Xuzhou Medical College. A 1.35-ml aliquot of blood was warmed at 37°C for 5 min and hypnotic (from a 40 mM stock in DMSO solution) was added to a final concentration of 200 µM. After the specified incubation time, a 150-µl sample was removed and the metabolic reaction was quenched using 150-µl acetonitrile. Zero time-point samples were prepared by adding 150-µl acetonitrile (using a 4 mM stock in DMSO) to 150-µl blood before addition of the hypnotic. The quenched samples were centrifuged, and the supernatant was separated and stored at −20°C until analyzed. Hypnotic concentrations in thawed samples were determined by high-performance liquid chromatography using a 3-µm phenyl 4.6×50-mm C-A-25, ACE column with the UV detector set at 240 nm. A linear gradient 20–45% acetonitrile in water with 0.05% trifluoroacetic acid was run for more than 20 min at a flow rate of 1 ml/min. The lower limit of quantitation of this assay is 3 µM and the accuracy within 15% at 10 µM. The metabolic half-lives were quantified from the incubation time-dependent change in drug concentration.

[12] = In vitro metabolic half-life in human whole blood; type: in vitro ADME; settings: male, Human (n = 4), 37°C, read-out: Mean t1/2 Value
Protocol: as §6, with “A linear gradient 20–45% acetonitrile in water with 0.05% trifluoroacetic acid was run for more than 20 min at a flow rate of 1 ml/min.” left out

[13] = In vitro metabolic half-life in rat whole blood; type: in vitro ADME; settings: male, Sprague-Dawley Rat (n = 3), 37°C, read-out: Mean t1/2 Value
Protocol: as §6, with “A linear gradient 20–45% acetonitrile in water with 0.05% trifluoroacetic acid was run for more than 20 min at a flow rate of 1 ml/min.” left out

[14] = In vitro metabolic half-life in rabbit whole blood; type: in vitro ADME; settings: male, New Zealand White rabbit (n = 3), 37°C, read-out: Mean t1/2 Value
Protocol: as §6, with “A linear gradient 20–45% acetonitrile in water with 0.05% trifluoroacetic acid was run for more than 20 min at a flow rate of 1 ml/min.” left out

[15] = In vitro metabolic half-life in monkey whole blood; type: in vitro ADME; settings: male, Cynomolgus monkey (n = 3), 37°C, read-out: Mean t1/2 Value
Protocol: as §6, with “A linear gradient 20–45% acetonitrile in water with 0.05% trifluoroacetic acid was run for more than 20 min at a flow rate of 1 ml/min.” left out

[16] = mice, IV over 10 s, 95% confidence limits, read-out: HD50 (the source's name)
[17] = mice, IV 2× HD50, mean ± SD (n = 10)

T1 sequence (P14867 28-456): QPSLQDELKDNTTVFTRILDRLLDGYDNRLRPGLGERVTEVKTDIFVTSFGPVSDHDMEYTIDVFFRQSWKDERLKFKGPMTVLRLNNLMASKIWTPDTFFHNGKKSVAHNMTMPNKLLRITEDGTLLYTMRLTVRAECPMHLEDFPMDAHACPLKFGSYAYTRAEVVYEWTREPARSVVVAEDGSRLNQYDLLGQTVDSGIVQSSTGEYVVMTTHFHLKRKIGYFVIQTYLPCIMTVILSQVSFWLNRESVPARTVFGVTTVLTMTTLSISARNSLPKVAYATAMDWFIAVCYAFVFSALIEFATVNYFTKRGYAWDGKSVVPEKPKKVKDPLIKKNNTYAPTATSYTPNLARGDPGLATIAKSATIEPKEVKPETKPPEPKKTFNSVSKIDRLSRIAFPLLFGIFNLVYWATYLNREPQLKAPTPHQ
T1 sequence (P47870 25-512 limits assumed): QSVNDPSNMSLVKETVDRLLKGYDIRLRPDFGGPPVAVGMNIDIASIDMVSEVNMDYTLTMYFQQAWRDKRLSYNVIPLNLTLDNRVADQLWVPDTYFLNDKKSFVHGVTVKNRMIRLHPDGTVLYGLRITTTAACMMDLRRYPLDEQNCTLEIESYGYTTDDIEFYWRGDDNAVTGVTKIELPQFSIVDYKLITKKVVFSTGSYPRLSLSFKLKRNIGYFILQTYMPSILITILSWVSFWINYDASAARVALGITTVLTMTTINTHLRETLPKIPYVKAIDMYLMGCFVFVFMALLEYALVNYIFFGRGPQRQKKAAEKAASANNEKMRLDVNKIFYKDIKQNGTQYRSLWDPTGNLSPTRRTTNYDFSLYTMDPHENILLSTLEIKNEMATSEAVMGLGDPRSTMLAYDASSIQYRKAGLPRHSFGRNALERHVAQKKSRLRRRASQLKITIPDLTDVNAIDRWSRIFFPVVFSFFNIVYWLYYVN
T1 sequence (P18507 40-475): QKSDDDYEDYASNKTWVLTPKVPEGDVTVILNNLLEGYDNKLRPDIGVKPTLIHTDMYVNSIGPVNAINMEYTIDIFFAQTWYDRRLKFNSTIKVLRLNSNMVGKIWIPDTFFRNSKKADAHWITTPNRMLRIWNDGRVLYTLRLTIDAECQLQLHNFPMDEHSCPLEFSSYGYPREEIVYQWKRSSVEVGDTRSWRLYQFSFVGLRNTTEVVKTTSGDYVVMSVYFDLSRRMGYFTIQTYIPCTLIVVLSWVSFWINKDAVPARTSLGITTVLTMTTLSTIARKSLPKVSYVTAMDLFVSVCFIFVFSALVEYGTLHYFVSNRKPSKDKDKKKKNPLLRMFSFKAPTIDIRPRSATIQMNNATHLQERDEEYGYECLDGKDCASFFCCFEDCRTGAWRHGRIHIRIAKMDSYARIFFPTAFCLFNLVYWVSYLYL

Compound	LD50 (in vivo) [mg/kg]	time to walk after infusion (rabbits [2]) [s]	duration of LORR after cessation of infusion (rabbits [2]) [s]	Duration of LORR (rabbits [3]) [s]	Time to walk (rabbits [3]) [s]	HD50 (rabbits [3])	TI (rat [4])	HD50 (rat [5])	Octanol:Water Partition (Coefficient ± SD) [7]	TI (mice [8])	GABAA binding (50 µmol) (Mean ± SD), percentage of inhibition (GABAA receptor) [%]	TI (rabbits [9])	Duration of LORR (rat [5]; 2× HD50 dose, mean ± SD) [s]	Time to walk (rat [5]; 2× HD50 dose, mean ± SD) [s]	time to behavioral recovery (rat [5]; 2× HD50 dose, mean ± SD) [s]	ED50 (mice [6]; [16]) [mg/kg]	Time to walk (mice [6]; mice, 2× HD50) [s]	time to behavioral recovery (mice [6]; mice, 2× HD50, rotarod) [s]	Duration of LORR (mice [6]; [17]) [s]	Onset time (mice [6]; mice, IV, mean ± SD (n = 10)) [s]	further results
CC(C)c1cccc(C(C)C)c1O [Propofol]	64.4	167.9 ± 60.8	485.6 ± 164.1	326.6 ± 48.3	425.3 ± 162.3	3.2 (2.3∼4.2) mg/kg	5.9	5.2 (4.5∼5.7) mg/kg	–	–	–	–	–	–	–	–	–	–	–	–	EC50 [1]: 2.4 µM; Duration of LORR (rat [5]; in vivo): 349.3 ± 93.3 s; Time to walk (rat [5]; in vivo): 286.5 ± 86.5 s; time to behavioral recovery (rat [5]; in vivo): 335.8 ± 156.9 s; ED50 (mice [6]; iv, read-out: HD50): 11.9 mg/kg; Time to walk (mice [6]; mouse, in vivo): 76.5 ± 42.5 s; time to behavioral recovery (mice [6]; mouse, in vivo): 242.7 ± 119.2 s; Duration of LORR (mice [6]; mouse, in vivo, iv): 240.9 ± 93.7 s; Onset time (mice [6]; mouse, in vivo, iv): 8.1 ± 1.6 s
CCCOC(=O)Cc1ccc(OCC(=O)N(CC)CC)c(OC)c1 [Propanidid]	119	70.2 ± 14.9	246.6 ± 65.7	265.4 ± 44.2	124.5 ± 24.8	5.1 (4.7∼5.7) mg/kg	9.6	8.4 (7.8∼10.4) mg/kg	394±40	5.6	70.2±5.8	14.7	93.3 ± 16.1	58.7 ± 18.8	79.9 ± 34.6	20.9	56.3 ± 23.5	83.9 ± 17.1	89.6 ± 18.2	6.7 ± 0.5	EC50 ([1]; GABAA (α1β2γ2) CHO-K1 cell, patch clamp, read-out: EC50, potentiation of EC20 muscimol evoked chloride currents): 25.2 µM
CCCOC(=O)Cc1ccc(OCC(=O)N(CC)CC)c(OCC)c1 [AZD3043, reference compound]	98.4	46.3 ± 11.2	135.6 ± 66.7	221.6 ± 38.8	89.6 ± 7.6	4.8 (4.6∼5.6) mg/kg	10.1	8.2 (7.7∼9.8) mg/kg	466±54	6.0	83.2±7.4	15.6	74.2 ± 10.5	38.4 ± 9.6	56.9 ± 12.5	17.6	36.7 ± 6.4	65.5 ± 14.1	63.8 ± 8.5	5.6 ± 1.2	EC50 [10]: 36 µM; half-life at 200 µM [11]: > 60 min; half-life at 200 µM [12]: 28.6 ± 6.2 min; half-life at 200 µM [13]: 0.6 ± 0.1 min; half-life at 200 µM [14]: 14.8 ± 3.3 min; half-life at 200 µM [15]: 56.7 ± 11.9 min
